Where a SMILES comes first, the peptide text is derived from it. The star is where a group is joined. Cbz = O=C(OCc1ccccc1)*; OtBu = CC(C)(C)O*

Assay [1] concerns T1, 20S proteasome of S. cerevisiae.
T1 construct: crystals of the 20S proteasome of S. cerevisiae were generated in hanging drops
Briefly: Co-crystallisation with 20S yeast-proteasome. On the procedure:
For this, crystals of the 20S proteasome of S. cerevisiae were generated in hanging drops at 24° C., as described earlier (6), and incubated for 60 min with compound 15. The protein concentration as used for the crystallization was 40 mg/ml in Tris-HCl (10 mM, pH 7.5), and EDTA (1 mM). The drops contained 3 μl protein and 2 μl reservoir-solution, containing 30 mM magnesium acetate, 100 mM morpholino ethanesulfonic acid (pH 7.2) and 10% MPD.
The space group belonged to P21 with cellular dimensions of a=135.8 Å, b=300.1 ÅA, c=144.4 Å, and (β=113.1°. Data for 2.8 Å were collected using synchrotron-radiation with λ=1.05 Å on the BW6-beamline of the DESY, Hamburg, Germany. Crystals were soaked in a cryo-protecting buffer (30% MPD, 20 mM magnesium acetate, 100 mM morpholino ethanesulfonic acid pH 6.9), and frozen and in a stream of liquid nitrogen gas at 90K (Oxford Cryo Systems). X-ray-intensities were evaluated using the MOSFILM program-package (Version 6.1), and data reduction was performed with CCP4 (24). The anisotropy of the diffraction was corrected by a general anisotropic temperature factor through comparison of the observed and calculated structure-amplitudes using the program X-PLOR (25). An overall number of 2383416 reflexions that led to 248616 unique reflexions (96.9% completeness), was collected. […]

For assay [2], the target named is T2, 20S proteasome β5 chymotrypsin-like activity (GLL-MCA) (Homo sapiens, UniProt P20618+P28074).
T2 construct: Proteasomes were isolated from red blood cells; from tissue; host or cells: red blood cells
Briefly: Protease assay, chymotrypsin-like activity of isolated 20S proteasomes (GLL substrate). Type of assay: biochemical. To be noted: isolated 20S proteasome; GLL-MCA 50 μM; 15 min pre-incubation; read-out: IC50 β5 Chym.-like (L). On the procedure:
(§1) Proteasomes were isolated from red blood cells. Cells were lysed with DTT (1 mM), and the stroma-free supernatant was loaded on DEAE-sepharose (Toyopearls). Proteasome was eluted with an NaCl-gradient in TEAD (20 mM TrisCl pH 7.4, 1 mM EDTA, 1 mM azide, 1 mM DTT) of 100 to 300 mM NaCl. Proteasome was concentrated using ammonium sulfate-precipitation (between 40 and 70% saturation) and was separated in a 10-40% sucrose-gradient through centrifugation at 40.000 rpm for 16 hours (SW40; L7, Beckman & Coulter). Finally, the proteasomes were purified on a MonoQ-column and eluted with an NaCl-gradient at about 280 mM NaCl. The fractions containing purified proteasome were dialysed against 50 mM NaCl in TEAD and stored on ice. The purity was determined using SDS-PAGE.
(§2) Suc-LLVY-AMC, Z-VGR-AMC and LLE-AMC (BACHEM, Calbiochem) was used, in order to determine the chymotrypsin-like, trypsin-like or caspase-like (post-acidic)-activities of the proteasome. Substrate was incubated with proteasome at 37° C. in assay-buffer (20 mM Tris/Cl, pH 7.2, 1 mM EDTA, 1 mM DTT) for one hour. 100 ng proteasome was pre-incubated with 0.01-10 μM of the inhibitor for […]. The reaction was started by the addition of substrate (50 μM). The AMC as released was detected using fluorescence emission at 460 nm (excitation at 390 nm) using a TECAN-fluorimeter. The activity was calculated in fluorescence-units. The inhibition is depicted by IC50-values.
(§3) The IC50-values form the inhibition of the proteasome were calculated at increasing concentrations of the inhibitor. The samples were pre-incubated for 15 min in ice. The assay was started through the addition of 50 μM of one of the following fluorogenic peptide substrates:
(§4) The release of MCA was determined at 460 nm emission (excitation 390 nm). The IC50-values as calculated for MG132 served as controls.

For assay [3], the target named is T3, 20S proteasome β2 trypsin-like activity (VGR-MCA) (Homo sapiens, UniProt P49720+Q99436).
T3 construct: Proteasomes were isolated from red blood cells; from tissue; host or cells: red blood cells
Briefly: Protease assay, trypsin-like activity of isolated 20S proteasomes. As to conditions: isolated 20S proteasome; VGR-MCA 50 μM; 15 min pre-incubation; read-out: IC50 β2 Trypsin-like (R). Type of assay: biochemical. Here is the method:
as §1, §2
The effects thereof were compared with the one of the commonly used proteasomal inhibitor 3 (MG132). The chymotrypsin-like (Suc-LLVY-AMC), the trypsin-like (Bz-VGR-AMC), and the caspase-like (Z-LLE-AMC)-activities of 20S proteasomes were determined following incubation for one hour at 37° C.
as §3, §4

Assay [4] relates to Human melanoma cells (MeWo). Briefly: Cell cycle arrest in MeWo cells, propidium iodide FACS. To be noted: 24 hours. Type of assay: cell-based. Here is the method: A, Human melanoma cells (MeWo) were treated with increasing concentrations of the compounds 15 or 3 (MG132) for 72 hours. The viability of the cells after the treatment with compound 15 (-♦-) and with MG132 (-□-) was detected by a crystal-violet-staining. B and C, MeWo cells were co-cultivated with the compounds 15 and 3 (MG132) for 24 hours. The cells were subsequently fixed in 70% ethanol, and treated with RNAse A. The DNA was stained with propidium iodide (5 μg/ml), and analysed by means of FACS (FACS Calibur flow cytometer; Beckton Dickinson). The statistical significance was detected by the chi-square-test. The relative distribution of the cells that were present in the G1-(black), in the S-(white) or in the G2 phase (hatched) of the cellular cycle is shown for both compounds as examined (15 in B and MG132 in C).
Human melanoma cells (MeWo) were with the compounds 15 and 3 (MG132) for 24 hours co-cultivated. The cells were washed with PBS, in 70% ethanol fixed and subsequently treated with RNAse A. The DNA was stained with propidium iodide (5 μg/ml) and analysed by means of flow-cytometry (FACS Calibur flow cytometer; Beckton Dickinson). The relative dispersion of the cells that were present in different phases of the cell cycle, could thus be detected. […] The statistical significance was detected by the Chi-square test.

Another assay deals with Fibroblasts. Briefly: Viability of fibroblasts (control). Type of assay: cell-based. As to conditions: Fibroblast, identical conditions (72 h), read-out: concentration for 50% reduction of the viability.

Turning to `CC(C)CC(C=O)NC(=O)C(CC(=O)OC(C)(C)C)NC(=O)C(CC(C)C)NC(=O)OCc1ccccc1` (stereo not drawn) [Compound 15, Z-Leu-Asp(O^tBu)Leu-CHO] (Cbz-Leu-Asp(OtBu)-Leu-aldehyde; configuration not given here), in assay [1] (2.8 Å), the “binding mode to Thr1Oγ in crystal structure” value is on record as “covalent hemiacetal bond”. For the same compound, the “specificity for the subunits in crystal structure” value in assay [1] (high concentrations of the inhibitors (10 mM)) is given as “no specificity for the subunits”. Besides, the IC50 in assay [2] is 31 nM; in assay [3] it was 155 nM; in the assay with Fibroblasts it was 500 to 1000 nM. The “concentration giving arrest of the cell cycle in the G2 phase” value in assay [4] is 50 nM.

(Values after US8835392B2, “Mimetic peptides and the use thereof in the form of 20S, 26S and immunoproteasome inhibitors” (Technische Universität, priority 2005, dated 2014).)
